Measurements as given in the supplement of paper PMC10307832.

What was measured:
Assay in all cases: relative viability (nuclei count vs DMSO), 5 days (fraction); higher = more cells survive
Ponatinib + Decitabine = compound: Cc1ccc(C(=O)Nc2ccc(CN3CCN(C)CC3)c(C(F)(F)F)c2)cc1C#Cc1cnc2cccnn12 [Ponatinib] + Nc1ncn([C@H]2C[C@H](O)[C@@H](CO)O2)c(=O)n1 [Decitabine] (partner 2 µM)
Procedure, shortened: (§1)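 The day after seeding in 1536-well plates, lung cancer cell lines were treated by pin tool with a single drug, or with a fixed anchor-drug dose together with five library-drug doses (not always all listed) in √10 steps. After 5 days, a combined fix-and-stain solution (final 0.05% Triton X-100, 1% formaldehyde, 1 ug/ml Hoechst) was added. Nuclei counted on 4× images gave relative viability as treated counts over vehicle counts, reported as the median of duplicate plates.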

Ponatinib + Phenformin = compound: Cc1ccc(C(=O)Nc2ccc(CN3CCN(C)CC3)c(C(F)(F)F)c2)cc1C#Cc1cnc2cccnn12 [Ponatinib] + N=C(N)NC(=N)NCCc1ccccc1 [Phenformin] (partner 250 µM)
Procedure, shortened: as §1

Pazopanib + Linsitinib = compound: Cc1ccc(Nc2nccc(N(C)c3ccc4c(C)n(C)nc4c3)n2)cc1S(N)(=O)=O [Pazopanib] + C[C@]1(O)C[C@@H](c2nc(-c3ccc4ccc(-c5ccccc5)nc4c3)c3c(N)nccn32)C1 [Linsitinib] (partner 1 µM)
Procedure, shortened: as §1

Ponatinib + Luminespib = compound: Cc1ccc(C(=O)Nc2ccc(CN3CCN(C)CC3)c(C(F)(F)F)c2)cc1C#Cc1cnc2cccnn12 [Ponatinib] + CCNC(=O)c1noc(-c2cc(C(C)C)c(O)cc2O)c1-c1ccc(CN2CCOCC2)cc1 [Luminespib] (partner 0.01 µM)
Procedure, shortened: as §1

Cell Line | relative viability (Ponatinib + Decitabine; first compound 0.002 µM) | relative viability (Ponatinib + Decitabine; first compound 0.006325 µM) | relative viability (Ponatinib + Decitabine; first compound 0.06325 µM) | relative viability (Ponatinib + Decitabine; first compound 0.2 µM) | relative viability (Ponatinib + Phenformin; first compound 0.002 µM) | relative viability (Ponatinib + Phenformin; first compound 0.006325 µM) | relative viability (Ponatinib + Phenformin; first compound 0.06325 µM) | relative viability (Ponatinib + Phenformin; first compound 0.2 µM) | relative viability (Pazopanib + Linsitinib; first compound 0.01 µM) | relative viability (Pazopanib + Linsitinib; first compound 0.03162 µM) | relative viability (Pazopanib + Linsitinib; first compound 0.1 µM) | relative viability (Pazopanib + Linsitinib; first compound 0.3162 µM) | relative viability (Pazopanib + Linsitinib; first compound 1 µM) | relative viability (Ponatinib + Luminespib; first compound 0.002 µM) | relative viability (Ponatinib + Luminespib; first compound 0.006325 µM) | relative viability (Ponatinib + Luminespib; first compound 0.06325 µM) | relative viability (Ponatinib + Luminespib; first compound 0.2 µM)
NCI-H1648 | 0.464 | 0.615 | 0.429 | 0.358 |  |  |  |  |  |  |  |  |  |  |  |  | 
NCI-H1395 | 0.816 | 0.714 | 0.682 | 0.615 | 0.417 | 0.432 | 0.386 | 0.377 | 0.983 | 1.27 | 1.07 | 0.992 | 1.05 | 0.644 | 0.601 | 0.829 | 0.637
NCI-H2347 | 0.663 | 0.571 | 0.614 | 0.605 | 0.34 | 0.393 | 0.38 | 0.34 | 0.854 | 1.01 | 1.1 | 1.09 | 1.12 | 0.6 | 0.544 | 0.487 | 0.435
HCC-366 | 0.336 | 0.317 | 0.387 | 0.37 | 0.602 | 0.587 | 0.622 | 0.515 | 0.472 | 0.73 | 0.674 | 0.828 | 0.885 |  |  |  | 
201T | 0.849 | 0.862 | 0.914 | 0.811 | 0.417 | 0.458 | 0.438 | 0.42 | 0.942 | 1.04 | 1.06 | 1.06 | 0.989 | 1.1 | 1.07 | 1.08 | 0.966
HCC-827 | 0.327 | 0.385 | 0.338 | 0.326 | 0.411 | 0.429 | 0.416 | 0.348 | 1.01 | 0.935 | 0.938 | 0.933 | 0.849 | 0.476 | 0.914 | 0.446 | 0.589
NCI-H650 | 0.296 | 0.319 | 0.341 | 0.299 | 0.407 | 0.426 | 0.438 | 0.419 | 0.738 | 1.1 | 0.808 | 0.92 | 0.839 | 0.807 | 0.783 | 0.958 | 0.775
NCI-H2023 | 0.24 | 0.196 | 0.244 | 0.21 | 0.397 | 0.416 | 0.425 | 0.315 | 0.699 | 0.637 | 0.863 | 0.623 | 0.682 | 0.749 | 0.749 | 0.748 | 0.543
NCI-H596 | 0.925 | 0.999 | 0.984 | 1 | 0.621 | 0.82 | 0.7 | 0.568 | 0.833 | 1.12 | 1.24 | 1.06 | 1.03 | 1.06 | 1.07 | 1.01 | 0.686
SK-LU-1 | 0.562 | 0.569 | 0.639 | 0.555 | 0.445 | 0.469 | 0.475 | 0.328 | 1.02 | 1.22 | 1.17 | 1.27 | 1.11 | 0.196 | 0.213 | 0.2 | 0.175
